Results taken from patent US20230295162A1 (EÖTVÖS LORÁND TUDOMÁNYEGYETEM, priority 2020, published 2023).

Columns and labels:
[1] = system: MDA-MB-231 (breast, adenocarcinoma) cells; assay: Cell viability assay, CellTiter-Glo (Example 21); assay type: cell-based, human; conditions: 72 h treatment
Procedure, shortened: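 MDA-MB-231 breast adenocarcinoma cells were seeded at 1500 cells/well in flat-bottomed white 96 well plates (BRANDplates®, cat. no.: 781965). Following compound exposure, viability was assessed with the CellTiter-Glo® luminescent assay (Promega) following the manufacturer's protocol, and luminescence was read on a BioTek Synergy 2 Multi-Mode Reader.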

[2] = system: DU 145 (prostate, carcinoma) cells; assay: Cell viability assay, CellTiter-Glo (Example 21); assay type: cell-based, human; conditions: 72 h
Procedure, shortened: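 DU 145 cancer cell viability was assessed with the CellTiter-Glo® luminescent assay (Promega, Madison, WI, USA), following the manufacturer's instructions. Cells were seeded at 1000 cells/well in flat-bottomed white 96 well plates, and after treatment luminescence was read on a BioTek Synergy 2 Multi-Mode Reader.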

[3] = system: SCC-25 (tongue, squamous cell carcinoma) cells; assay: Cell viability assay, CellTiter-Glo (Example 21); assay type: cell-based, human; conditions: 72 h treatment
Procedure, shortened: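 SCC-25 tongue squamous cell carcinoma cells were seeded at 1000 cells/well in flat-bottomed white 96 well plates, treated with compound, and viability was then determined with the CellTiter-Glo luminescent assay (Promega) following the manufacturer's instructions. Luminescence was read on a BioTek Synergy 2 Multi-Mode Reader.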

[4] = system: MIA PaCa-2 (pancreas, carcinoma) cells; assay: Cell viability assay, CellTiter-Glo (Example 21); assay type: cell-based, human; conditions: 72 h treatment
Procedure, shortened: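 MIA PaCa-2 pancreatic carcinoma cells were seeded at 1000 cells/well in flat-bottomed white 96 well plates (BRANDplates®, cat. no.: 781965) and treated with compound. Viability was then determined with the CellTiter-Glo® luminescent cell viability assay (Promega) following the manufacturer's instructions, with luminescence read on a BioTek Synergy 2 Multi-Mode Reader.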

[5] = system: MDA-MB-231 breast cancer cell line; assay: CellTiter-Glo IC50 (Table 3); assay type: cell-based; conditions: Homo sapiens
Description: (§1) Some representative imipridones and ONC212 as reference were further tested on the following human malignant cell lines: PC3 and LNCap (prostate carcinoma); BxPC3, MiaPaCa2 and Panc1 (pancreatic cancer); A549, HCC827, H1993 and H520 (lung carcinoma); MDA-MB-453 and MDA-MB-231 (breast cancer) (see Table 2 and FIGS. 1-11).
(§2) Cell lines were maintained according to the instructions provided by ATCC (https://www.lgcstandards-atcc.org/) in a 5% CO2 humidified incubator maintained at 37° C. temperature. Effects of compounds on cell viability were measured via CellTiter-Glo® luminescent cell viability assay (Promega, Madison, WI, USA) Cells were plated at 1000 cells/well onto a flat-bottomed, white 96 well plate (BRANDplates, cat. no.: 781965). […] After the treatment, medium was removed and CellTiter-Glo® reagent was added. The luminescence signal was recorded using a microplate reader (BioTek Synergy 2 Multi-Mode Reader, BioTek, Winooski, VT, USA).
(§3) Cell viability data (% of untreated control cells) was evaluated with Microsoft Excel. Dose-response curves (using a non-linear regression model, log (inhibitor) vs response, variable slope) were generated and IC50 values were determined using Graph Pad Prism 5.02 software (GraphPad Software, San Diego, CA, USA).

[6] = system: MDA-MB-453 breast cancer cell line; assay: CellTiter-Glo IC50 (Table 3); assay type: cell-based; conditions: Homo sapiens
Description: as §1, §2, §3

[7] = system: A549 lung carcinoma cell line; assay: CellTiter-Glo IC50 (Example 19); assay type: cell-based; conditions: Homo sapiens, 72 h
Procedure, shortened: (§4)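 Cultures grown under ATCC conditions at 37° C with 5% CO2 are plated at 1000 cells/well, treated with compound, then lysed with CellTiter-Glo after medium removal. Luminescence gives viability as a fraction of untreated cells; IC50 is taken from a log(inhibitor) vs response fit.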

[8] = system: PC3 human prostate cancer cell line; assay: CellTiter-Glo IC50 (Example 19); assay type: cell-based; conditions: 72 h
Procedure, shortened: as §4

[9] = system: MiaPaCa2 pancreatic cancer cell line; assay: CellTiter-Glo IC50 (Example 19); assay type: cell-based; conditions: Homo sapiens, MIA PaCa-2, 72 h
Procedure, shortened: as §4

[10] = system: HCC827 lung carcinoma cell line; assay: CellTiter-Glo IC50 (Example 19); assay type: cell-based; conditions: Homo sapiens, 72 h
Procedure, shortened: as §4

[11] = system: H520 lung carcinoma cell line; assay: CellTiter-Glo IC50 (Example 19); assay type: cell-based; conditions: Homo sapiens, NCI-H520, 72 h
Procedure, shortened: as §4

[12] = system: BxPC3 pancreatic cancer cell line; assay: CellTiter-Glo IC50 (Example 19); assay type: cell-based; conditions: Homo sapiens, BXPC-3, 72 h
Procedure, shortened: as §4

[13] = system: H1993 lung carcinoma cell line; assay: CellTiter-Glo IC50 (Example 19); assay type: cell-based; conditions: Homo sapiens, NCI-H1993, 72 h
Procedure, shortened: as §4

[14] = system: LNCap human prostate cancer cell line; assay: CellTiter-Glo IC50 (Example 19); assay type: cell-based; conditions: 72 h
Procedure, shortened: as §4

[15] = system: representative cell lines; assay: Cytotoxicity on representative cell lines (summary statement); assay type: cell-based; conditions: Homo sapiens; summary range, ca.
[16] = system: PANC-1 (human pancreatic carcinoma) cells; assay: Impedance-based viability assay (xCELLigence SP), long treatment; assay type: cell-based; conditions: 72 h, read-out: cytotoxicity expressed in IC50, PANC-1
Text: (Gibco®/Invitrogen Corporation, New York, NY, USA).
Data obtained from each experiment represent mathematical averages.

SMILES | melting point | MDA-MB-231 (breast, adenocarcinoma) cell viability (% of control) ([1]; 3.7 nM) | MDA-MB-231 (breast, adenocarcinoma) cell viability (% of control) ([1]; 11.1 nM) | MDA-MB-231 (breast, adenocarcinoma) cell viability (% of control) ([1]; 100 nM) | MDA-MB-231 (breast, adenocarcinoma) cell viability (% of control) ([1]; 300 nM) | DU 145 cell viability ([2]; 3.7 nM) | DU 145 cell viability ([2]; 11.1 nM) | DU 145 cell viability ([2]; 100 nM) | DU 145 cell viability ([2]; 300 nM) | SCC-25 (tongue, squamous cell carcinoma) cell viability (% of control) ([3]; 3.7 nM) | SCC-25 (tongue, squamous cell carcinoma) cell viability (% of control) ([3]; 11.1 nM) | SCC-25 (tongue, squamous cell carcinoma) cell viability (% of control) ([3]; 100 nM) | SCC-25 (tongue, squamous cell carcinoma) cell viability (% of control) ([3]; 300 nM) | MIA PaCa-2 (pancreas, carcinoma) cell viability (% of control) ([4]; 3.7 nM) | MIA PaCa-2 (pancreas, carcinoma) cell viability (% of control) ([4]; 11.1 nM) | MIA PaCa-2 (pancreas, carcinoma) cell viability (% of control) ([4]; 100 nM) | MIA PaCa-2 (pancreas, carcinoma) cell viability (% of control) ([4]; 300 nM) | IC50 [5] | IC50 [6] | IC50 [7] | further results
O=C1C2=C(CCN(Cc3cc(F)cc(F)c3)C2)N2CCN=C2N1Cc1ccc(F)cc1 [I/7, 4-(4-Fluorobenzyl)-7-(3,5-difluorobenzyl)-2,4,6,7,8,9-hexahydroimidazo[1,2-a]pyrido[3,4-e]pyrimidin-5(1H)-one] | 190.5 °C | 99.6 ± 2.2 % of control | 63.6 ± 4.4 % of control | 58.6 ± 3.0 % of control | 59.4 ± 3.0 % of control | 64.1 ± 8.0 % of control | 7.5 ± 0.6 % of control | 7.2 ± 2.3 % of control | 8.5 ± 2.4 % of control | 88.7 ± 5.6 % of control | 45.1 ± 4.7 % of control | 35.1 ± 2.2 % of control | 39.7 ± 2.7 % of control | 87.4 ± 12.0 % of control | 23.1 ± 6.3 % of control | 18.5 ± 6.8 % of control | 19.8 ± 8.6 % of control | 2 nM | 1 nM | 8 nM | IC50 [8]: 9 nM; IC50 [9]: 11 nM; IC50 [10]: 13 nM; IC50 [11]: 7 nM; IC50 [12]: 12 nM; IC50 [13]: 10 nM; IC50 [14]: 5 nM; IC50 [15]: 3 to 8 nM; IC50 [16]: 8 nM
[N-]=[N+]=Nc1ccc(CN2C(=O)C3=C(CCN(Cc4cc(F)cc(F)c4)C3)N3CCN=C23)cc1 [I/107, 4-(4-Azidobenzyl)-7-(3,5-difluorobenzyl)-2,4,6,7,8,9-hexahydroimidazo[1,2-a]pyrido[3,4-e]pyrimidin-5(1H)-one] | 155.5 °C | 102.1 ± 3.5 % of control | 98.6 ± 0.8 % of control | 57.3 ± 1.8 % of control | 55.7 ± 0.9 % of control | 101.2 ± 6.5 % of control | 48.7 ± 1.7 % of control | 8.3 ± 2.9 % of control | 9.0 ± 2.9 % of control | 97.3 ± 3.8 % of control | 75.6 ± 6.8 % of control | 35.4 ± 5.7 % of control | 42.4 ± 5.7 % of control | 102.5 ± 5.4 % of control | 91.5 ± 6.6 % of control | 18.8 ± 6.2 % of control | 17.4 ± 7.1 % of control | 3 nM | 2 nM | 16 nM | IC50 [8]: 11 nM; IC50 [9]: 16 nM; IC50 [10]: 15 nM; IC50 [11]: 8 nM; IC50 [12]: 14 nM; IC50 [13]: 12 nM; IC50 [14]: 5 nM; IC50 [16]: 11 nM
[N-]=[N+]=Nc1cccc(CN2CCC3=C(C2)C(=O)N(Cc2ccc(C(F)(F)F)cc2)C2=NCCN23)c1 [I/111, 7-(3-Azidobenzyl)-4-(4-(trifluoromethyl)benzyl)-2,4,6,7,8,9-hexahydroimidazo[1,2-a]pyrido[3,4-e]pyrimidin-5(1H)-one] | 128.8 °C | 102.7 ± 2.8 % of control | 98.5 ± 2.1 % of control | 56.9 ± 2.2 % of control | 52.8 ± 2.7 % of control | 93.6 ± 6.9 % of control | 33.8 ± 5.0 % of control | 7.1 ± 2.0 % of control | 8.1 ± 1.9 % of control | 98.3 ± 4.0 % of control | 79.0 ± 11.0 % of control | 32.5 ± 1.2 % of control | 36.4 ± 0.9 % of control | 100.2 ± 8.8 % of control | 90.6 ± 19.3 % of control | 16.5 ± 6.7 % of control | 16.2 ± 6.9 % of control | 1 nM | < 1 nM | 8 nM | IC50 [8]: 7 nM; IC50 [9]: 10 nM; IC50 [10]: 12 nM; IC50 [11]: 6 nM; IC50 [12]: 13 nM; IC50 [13]: 6 nM; IC50 [14]: 5 nM; IC50 [16]: 10 nM
